Data reported in ChEMBL document CHEMBL1777762, “Design and synthesis of protein kinase Cα activators based on 'out of pocket' interactions” (Bioorg Med Chem Lett, 2011).
Active and inactive are the calls of the source. The rule behind the calls is not given here.

Key:
[1] = molecular target: T1, Protein kinase C alpha type (Homo sapiens, UniProt P17252); assay: Displacement of [3H]PDBu from human recombinant PKCalpha after 20 mins by liquid scintillation counting
[2] = molecular target: T1, Protein kinase C alpha type; assay: Activation of human recombinant PKCalpha assessed as rate of phosphate incorporation into PepTag C1 peptide at 100 uM after 40 mins by agarose gel electrophoresis analysis relative to control
[3] = molecular target: T1, Protein kinase C alpha type; assay: Activation of human recombinant PKCalpha assessed as rate of phosphate incorporation into PepTag C1 peptide at 10 uM after 40 mins by agarose gel electrophoresis analysis relative to control
[4] = molecular target: T1, Protein kinase C alpha type; assay: Activation of human recombinant PKCalpha assessed as rate of phosphate incorporation into PepTag C1 peptide at 1 uM after 40 mins by agarose gel electrophoresis analysis relative to control
[5] = molecular target: T1, Protein kinase C alpha type; assay: Activation of human recombinant PKCalpha assessed as rate of phosphate incorporation into PepTag C1 peptide at 0.1 uM after 40 mins by agarose gel electrophoresis analysis relative to control
[6] = molecular target: T1, Protein kinase C alpha type; assay: Activation of human recombinant PKCalpha assessed as rate of phosphate incorporation into PepTag C1 peptide at 0.01 uM after 40 mins by agarose gel electrophoresis analysis relative to control
[7] = molecular target: T1, Protein kinase C alpha type; assay: Activation of human recombinant PKCalpha assessed as rate of phosphate incorporation into PepTag C1 peptide at 0.001 uM after 40 mins by agarose gel electrophoresis analysis relative to control
[8] = molecular target: T1, Protein kinase C alpha type; assay: Activation of human recombinant PKCalpha assessed as rate of phosphate incorporation into PepTag C1 peptide at 0.0001 uM after 40 mins by agarose gel electrophoresis analysis relative to control
[9] = molecular target: T1, Protein kinase C alpha type; assay: Activation of human recombinant PKCalpha assessed as rate of phosphate incorporation into PepTag C1 peptide at 1 to 100 uM after 40 mins by agarose gel electrophoresis analysis

Row | Structure (SMILES) | Ki [1] [µM] | Activity [9] | other results
1 | CCCCCCCCCCCCOc1cccc2c1C(=O)O[C@]2(CO)COC(=O)CCCCCCCCCCC | > 3 | – | –
2 | CCCCCCCCCCCCCC(=O)O[C@@H]1[C@@H](C)[C@@]2(O)[C@@H](C=C(CO)C[C@]3(O)C(=O)C(C)=C[C@@H]23)[C@@H]2C(C)(C)[C@]12OC(C)=O | – | – | Activity [2]: 108%; Activity [3]: 100%; Activity [4]: 85.3%; Activity [5]: 80.6%; Activity [6]: 62.4%; Activity [7]: 11.1%; Activity [8]: 0.58%
3 | CCCCCCCCCCCCO[C@H]1[C@@H](OCc2ccc(C(C)C)cc2)[C@H](OCc2ccc(C(C)C)cc2)[C@@H](OCC#Cc2cccc3c2C(=O)O[C@]3(CO)COC(=O)C(C(C)(C)C)C(C)(C)C)[C@H](OCc2ccc(C(C)C)cc2)[C@H]1OCc1ccc(C(C)C)cc1 | > 20 | Active | –
4 | CCCCCCCCCCCCO[C@H]1[C@@H](OCc2ccc(F)cc2)[C@H](OCc2ccc(F)cc2)[C@@H](OCC#Cc2cccc3c2C(=O)O[C@]3(CO)COC(=O)C(C(C)(C)C)C(C)(C)C)[C@H](OCc2ccc(F)cc2)[C@H]1OCc1ccc(F)cc1 | > 20 | Active | –
5 | CCCCCCCCCCCCO[C@H]1[C@@H](OCc2ccccc2)[C@H](OCc2ccccc2)[C@@H](OCC#Cc2cccc3c2C(=O)O[C@]3(CO)COC(=O)C(C(C)(C)C)C(C)(C)C)[C@H](OCc2ccccc2)[C@H]1OCc1ccccc1 | > 20 | Active | –
6 | CCCCCCCCCCCCO[C@@H]1[C@H](OCC=C(C)C)[C@@H](OC/C=C/C(C)C)[C@H](OCC#Cc2cccc3c2C(=O)O[C@]3(CO)COC(=O)C(C(C)(C)C)C(C)(C)C)[C@@H](OCC=C(C)C)[C@@H]1OCC=C(C)C | > 20 | Active | –
7 | CCCCCCCCCCCCO[C@@H]1[C@H](OC)[C@@H](OC)[C@H](OCC#Cc2cccc3c2C(=O)O[C@]3(CO)COC(=O)C(C(C)(C)C)C(C)(C)C)[C@@H](OC)[C@@H]1OC | 0.6 | Active | –
8 | CCCCCCCCCCCCO[C@H]1[C@@H](OC(C)=O)[C@H](OC(C)=O)[C@@H](OCC#Cc2cccc3c2C(=O)O[C@]3(CO)COC(=O)C(C(C)(C)C)C(C)(C)C)[C@H](OC(C)=O)[C@H]1OC(C)=O | 2.34 | Active | –
9 | CCCCCCCCCCCCOc1cccc2c1C(=O)O[C@]2(CO)COC(=O)C(C(C)(C)C)C(C)(C)C | 0.043 | – | –
